Measurements: patent publication US11547686B2 (priority 2017, dated 2023)
Converted amounts (≈) assume the structure as drawn. Where two headings read alike, the source gives them in different places. Marks after values point to notes of the source that are not given here.

Key:
[1] = system: red blood cells (human whole unclotted blood); test: In vitro hemolysis test, human blood; conditions: 15 min at 37° C.
[2] = system: red blood cells (mouse whole unclotted blood); test: In vitro hemolysis test, mouse blood; conditions: 15 min at 37° C.
[3] = system: red blood cells (rat whole unclotted blood); test: In vitro hemolysis test, rat blood; conditions: 15 min at 37° C.
[4] = system: red blood cells (dog whole unclotted blood); test: In vitro hemolysis test, dog blood; conditions: 15 min at 37° C.
[5] = Solubility of pregabalin and acetaminophen in water at different pH values (HPLC-UV); conditions: for solubility: thermodynamic from solid
Method: The pH was then adjusted to the required range. The concentration of the active ingredients was determined by HPLC-UV.

in vivo = conditions: for AUC(0-inf) / Cmax: rat, in vivo, iv
Method: The active ingredients were dissolved in 0.9% saline (20 mL) to achieve the desired concentration. The saline and vial constituents were mixed with by gentle swirling until a clear solution was obtained. The obtained clear solution was filtered through a sterile 0.45 μm PVDF membrane syringe filter and then used for further studies.
(§1) Blood samples were collected over a 24 h period, at which time the rats were exsanguinated, and the blood was collected for clinical pathology evaluation (chemistry, hematology, and coagulation). Finally, all the animals were necropsied (all exterior and interior cavities and organs were examined), and the site of infusion in the jugular vein, lung, liver, and kidney underwent histopathologic evaluation.

[6] = Necropsy and histopathologic evaluation after intravenous infusion in rats; conditions: n = 6 per group
Method: as §1

[7] = rats, 15 min IV infusion
Method: as §1

[8] = system: somatic pain in a rat model; test: Hot plate test (somatic pain); format: in vivo, Sprague-Dawley rats; conditions: rats; morphine 3 mg/kg s.c.; combination 50 mg/kg APAP; 40 mg/kg pregabalin IV infusion
Method: Hot Plate Test: The hot plate test is a test that can be used to assess pain sensitivity in rodents. […] In the test, an animal is placed in a confined cylindrical space to restrict locomotion. The floor surface of the space is maintained at a temperature sufficiently hot to elicit an aversive response, but not so hot that tissue damage is induced, typically 50-56° C. The animal is monitored, and latency to paw licking or jumping is recorded. This test can be used to screen novel drugs or drug combinations for effects on pain detection threshold; substances with an analgesic effect can increase latency to licking/jumping, while substances with a hyperalgesic effect can decrease latency.
The effect on somatic pain was tested in groups of 8 Male Sprague-Dawley rats.
Vehicle and test agents were administered by intravenous infusion (IV-CI) over 15 minutes starting 30 minutes before Time 0 (15 minutes post infusion). Morphine was used as a positive control, and was administered (3 mg/kg) by subcutaneous administration 60 minutes before Time 0. […] The pain threshold of the rats was assessed based on the time (seconds) required to elicit a paw withdrawal response (latency).
The data were analyzed by a one-way ANOVA followed by Dunnett's test for comparison between vehicle control and test article/positive control groups.

CC(=O)Nc1ccc(O)cc1 [Acetaminophen, N-(4-hydroxyphenyl)acetamide]
% Hemolysis ([1]; APAP 5 mg/mL): 2%
% Hemolysis ([1]; APAP 7.5 mg/mL): 0%
% Hemolysis ([1]; APAP 10 mg/mL): 6%
% Hemolysis ([2]; APAP 5 mg/mL): 5%
% Hemolysis ([2]; APAP 7.5 mg/mL): 5%
% Hemolysis ([2]; APAP 10 mg/mL): 4%
% Hemolysis ([3]; APAP 5 mg/mL): 6%
% Hemolysis ([3]; APAP 7.5 mg/mL): 0%
% Hemolysis ([3]; APAP 10 mg/mL): 2%
% Hemolysis ([4]; APAP 5 mg/mL): 0%
% Hemolysis ([4]; APAP 7.5 mg/mL): 0%
% Hemolysis ([4]; APAP 10 mg/mL): 0%
solubility ([5]; pH 4, aqueous buffer, Solubility of acetaminophen, water, pH 4, co-dissolved with pregabalin): ~21 mg/mL (≈ 139 mM)
solubility ([5]; pH 5, aqueous buffer, Solubility of acetaminophen, water, pH 5, co-dissolved with pregabalin): 18.7 mg/mL (≈ 124 mM)
solubility ([5]; pH 6, aqueous buffer, Solubility of acetaminophen, water, pH 6, co-dissolved with pregabalin): 17.9 mg/mL (≈ 118 mM)
solubility ([5]; pH 7, aqueous buffer, Solubility of acetaminophen, water, pH 7, co-dissolved with pregabalin): 17.9 mg/mL (≈ 118 mM)
Difference in the solubility of acetaminophen ([5]; pH range from 4-7, acetaminophen alone): no significant difference
Solubility of acetaminophen ([5]; water, pH 4, co-dissolved with pregabalin): 20.8 mg/mL
AUC(0-inf) (in vivo; 17 mg/kg, AUC0-∞ of acetaminophen): 11500 ng·h/mL
Cmax (in vivo; 17 mg/kg, Cmax of acetaminophen): 18600 ng/mL
AUC(0-inf) (in vivo; 17 mg/kg, Equivalence (80%-125%) range of acetaminophen AUC0-∞): 9190 to 14400 ng·h/mL
Cmax (in vivo; 17 mg/kg, Equivalence (80%-125%) range of acetaminophen Cmax): 14900 to 23300 ng/mL
Effect of the presence or absence of pregabalin on the pharmacokinetics of acetaminophen (in vivo; rats, 15 min IV infusion): did not affect

CC(C)C[C@H](CN)CC(=O)O [Pregabalin, (3S)-3-(Aminomethyl)-5-methylhexanoic acid]
Necropsy Observation: Lung Discolored ([6]; PGB 1.25 mg/kg): 1
Necropsy Observation: Lung Focus ([6]; PGB 1.25 mg/kg): 1
Necropsy Observation: Lung Discolored ([6]; PGB 5 mg/kg): 0
Necropsy Observation: Lung Focus ([6]; PGB 5 mg/kg): 2
% Hemolysis ([1]; PGB 0.75 mg/mL): 0%
% Hemolysis ([1]; PGB 1.5 mg/mL): 7%
% Hemolysis ([1]; PGB 3 mg/mL): 1%
ALBGLOB (albumin/globulin ratio, calculated) ([7]; PGB 1.25 mg/kg): 1.4
ALP (alkaline phosphatase) ([7]; PGB 1.25 mg/kg): 99 U/L
ALT (alanine aminotransferase) ([7]; PGB 1.25 mg/kg): 45 U/L
APPT (Activated partial thromboplastin time) ([7]; PGB 1.25 mg/kg): 12.9 s
AST (aspartate aminotransferase) ([7]; PGB 1.25 mg/kg): 93 ** U/L
Albumin ([7]; PGB 1.25 mg/kg): 4.0 g/dL
Basophils ([7]; PGB 1.25 mg/kg): 80 µL⁻¹
Bilirubin ([7]; PGB 1.25 mg/kg): 0.02 mg/dL
Calcium ([7]; PGB 1.25 mg/kg): 11.4 mg/dL
Chloride ([7]; PGB 1.25 mg/kg): 102 mEq/L
Cholesterol ([7]; PGB 1.25 mg/kg): 94 mg/dL
Creatinine ([7]; PGB 1.25 mg/kg): 0.47 mg/dL
Eosinophils ([7]; PGB 1.25 mg/kg): 280 µL⁻¹
GLOBUL (globulin, calculated) ([7]; PGB 1.25 mg/kg): 2.8 g/dL
Glucose ([7]; PGB 1.25 mg/kg): 166 mg/dL
Hematocrit ([7]; PGB 1.25 mg/kg): 44.2%
Hemoglobin ([7]; PGB 1.25 mg/kg): 14.2 g/dL
LGLUCLE (large unstained cell) ([7]; PGB 1.25 mg/kg): 100 µL⁻¹
Lymphocytes ([7]; PGB 1.25 mg/kg): 9400 µL⁻¹
MCH (mean cell hemoglobin) ([7]; PGB 1.25 mg/kg): 17.8 pg
MCHC (mean cell hemoglobin concentration) ([7]; PGB 1.25 mg/kg): 32 g/dL
MCV (mean cell volume) ([7]; PGB 1.25 mg/kg): 55.8 fL
Monocytes ([7]; PGB 1.25 mg/kg): 500 µL⁻¹
Neutrophils ([7]; PGB 1.25 mg/kg): 1400 µL⁻¹
PHOS (inorganic phosphorus) ([7]; PGB 1.25 mg/kg): 10.6 mg/dL
Platelets ([7]; PGB 1.25 mg/kg): 908000 µL⁻¹
Potassium ([7]; PGB 1.25 mg/kg): 7.3 mEq/L
Protein ([7]; PGB 1.25 mg/kg): 6.7 g/dL
Prothrombin time ([7]; PGB 1.25 mg/kg): 16.8 s
RBC ([7]; PGB 1.25 mg/kg): 7.93e+06 µL⁻¹
Reticulocytes ([7]; PGB 1.25 mg/kg): 4.11 * %
Sodium ([7]; PGB 1.25 mg/kg): 148 * mEq/L
Triglycerides ([7]; PGB 1.25 mg/kg): 33 mg/dL
UREAN (blood urea nitrogen) ([7]; PGB 1.25 mg/kg): 19 mg/dL
WBC ([7]; PGB 1.25 mg/kg): 11740 µL⁻¹
ALBGLOB (albumin/globulin ratio, calculated) ([7]; PGB 5 mg/kg): 1.4
ALP (alkaline phosphatase) ([7]; PGB 5 mg/kg): 97 U/L
ALT (alanine aminotransferase) ([7]; PGB 5 mg/kg): 51 U/L
APPT (Activated partial thromboplastin time) ([7]; PGB 5 mg/kg): 12.4 s
AST (aspartate aminotransferase) ([7]; PGB 5 mg/kg): 107 U/L
Albumin ([7]; PGB 5 mg/kg): 3.9 g/dL
Basophils ([7]; PGB 5 mg/kg): 80 µL⁻¹
Bilirubin ([7]; PGB 5 mg/kg): 0.02 mg/dL
Calcium ([7]; PGB 5 mg/kg): 11.5 mg/dL
Chloride ([7]; PGB 5 mg/kg): 101 mEq/L
Cholesterol ([7]; PGB 5 mg/kg): 93 mg/dL
Creatinine ([7]; PGB 5 mg/kg): 0.44 mg/dL
Eosinophils ([7]; PGB 5 mg/kg): 350 µL⁻¹
GLOBUL (globulin, calculated) ([7]; PGB 5 mg/kg): 2.8 g/dL
Glucose ([7]; PGB 5 mg/kg): 150 mg/dL
Hematocrit ([7]; PGB 5 mg/kg): 45.1%
Hemoglobin ([7]; PGB 5 mg/kg): 14.4 g/dL
LGLUCLE (large unstained cell) ([7]; PGB 5 mg/kg): 80 µL⁻¹
Lymphocytes ([7]; PGB 5 mg/kg): 10810 µL⁻¹
MCH (mean cell hemoglobin) ([7]; PGB 5 mg/kg): 18.3 pg
MCHC (mean cell hemoglobin concentration) ([7]; PGB 5 mg/kg): 32.1 g/dL
MCV (mean cell volume) ([7]; PGB 5 mg/kg): 57.1 fL
Monocytes ([7]; PGB 5 mg/kg): 450 µL⁻¹
Neutrophils ([7]; PGB 5 mg/kg): 1520 µL⁻¹
PHOS (inorganic phosphorus) ([7]; PGB 5 mg/kg): 10 ** mg/dL
Platelets ([7]; PGB 5 mg/kg): 933000 µL⁻¹
Potassium ([7]; PGB 5 mg/kg): 6.9 * mEq/L
Protein ([7]; PGB 5 mg/kg): 6.7 g/dL
Prothrombin time ([7]; PGB 5 mg/kg): 16.6 s
RBC ([7]; PGB 5 mg/kg): 7.9e+06 µL⁻¹
Reticulocytes ([7]; PGB 5 mg/kg): 4.7%
Sodium ([7]; PGB 5 mg/kg): 147 mEq/L
Triglycerides ([7]; PGB 5 mg/kg): 30 mg/dL
UREAN (blood urea nitrogen) ([7]; PGB 5 mg/kg): 19 mg/dL
WBC ([7]; PGB 5 mg/kg): 13280 µL⁻¹
% Hemolysis ([2]; PGB 0.75 mg/mL): 0%
% Hemolysis ([2]; PGB 1.5 mg/mL): 4%
% Hemolysis ([2]; PGB 3 mg/mL): 0%
% Hemolysis ([3]; PGB 0.75 mg/mL): 2%
% Hemolysis ([3]; PGB 1.5 mg/mL): 0%
% Hemolysis ([3]; PGB 3 mg/mL): 2%
% Hemolysis ([4]; PGB 0.75 mg/mL): 0%
% Hemolysis ([4]; PGB 1.5 mg/mL): 0%
% Hemolysis ([4]; PGB 3 mg/mL): 1%
solubility ([5]; aqueous buffer, Solubility of pregabalin, water, pH range of 5-7, pregabalin alone): ~31 mg/mL (≈ 195 mM)
solubility ([5]; pH 4, aqueous buffer, Solubility of pregabalin, water, pH 4, co-dissolved with acetaminophen): 54.4 mg/mL (≈ 342 mM)
solubility ([5]; pH 4, aqueous buffer, Solubility of pregabalin, water, room temperature, pH 4, pregabalin alone): 54.4 mg/mL (≈ 342 mM)
solubility ([5]; pH 5, aqueous buffer, Solubility of pregabalin, water, pH 5, co-dissolved with acetaminophen): 36.8 mg/mL (≈ 231 mM)
solubility ([5]; pH 5, aqueous buffer, Solubility of pregabalin, water, room temperature, pH 5, pregabalin alone): 32.4 mg/mL (≈ 203 mM)
solubility ([5]; pH 6, aqueous buffer, Solubility of pregabalin, water, pH 6, co-dissolved with acetaminophen): 35 mg/mL (≈ 220 mM)
solubility ([5]; pH 6, aqueous buffer, Solubility of pregabalin, water, room temperature, pH 6, pregabalin alone): 31 mg/mL (≈ 195 mM)
solubility ([5]; pH 7, aqueous buffer, Solubility of pregabalin, water, pH 7, co-dissolved with acetaminophen): 35 mg/mL (≈ 220 mM)
solubility ([5]; pH 7, aqueous buffer, Solubility of pregabalin, water, room temperature, pH 7, pregabalin alone): 30.6 mg/mL (≈ 192 mM)
Change in the solubility of pregabalin in the presence of acetaminophen ([5]; pH range of 5-7, versus pregabalin alone): increase
AUC(0-inf) (in vivo; 1.25 mg/kg, AUC0-∞ of pregabalin, rats, 15 min IV infusion, Pregabalin 1.25 mg/kg): 6750 ng·h/mL
Cmax (in vivo; 1.25 mg/kg, Cmax of pregabalin, rats, 15 min IV infusion, Pregabalin 1.25 mg/kg): 2060 ng/mL
AUC(0-inf) (in vivo; 1.25 mg/kg, Equivalence (80%-125%) range of pregabalin AUC0-∞, rats, Pregabalin 1.25 mg/kg alone as reference): 5400 to 8440 ng·h/mL
Cmax (in vivo; 1.25 mg/kg, Equivalence (80%-125%) range of pregabalin Cmax, rats, Pregabalin 1.25 mg/kg alone as reference): 1650 to 2580 ng/mL
AUC(0-inf) (in vivo; 5 mg/kg, AUC0-∞ of pregabalin, rats, 15 min IV infusion, Pregabalin 5 mg/kg): 26100 ng·h/mL
Cmax (in vivo; 5 mg/kg, Cmax of pregabalin, rats, 15 min IV infusion, Pregabalin 5 mg/kg): 7910 ng/mL
AUC(0-inf) (in vivo; 5 mg/kg, Equivalence (80%-125%) range of pregabalin AUC0-∞, rats, Pregabalin 5 mg/kg alone as reference): 20900 to 32700 ng·h/mL
Cmax (in vivo; 5 mg/kg, Equivalence (80%-125%) range of pregabalin Cmax, rats, Pregabalin 5 mg/kg alone as reference): 6330 to 9880 ng/mL
Change in the pharmacokinetic profile of pregabalin in the presence or absence of acetaminophen (in vivo; rats, 15 min IV infusion): No change

CN1CC[C@]23c4c5ccc(O)c4O[C@H]2[C@@H](O)C=C[C@H]3[C@H]1C5 [morphine]
Onset of the analgesic effect [8]: near immediate
